For data set [1], the system named is Mus musculus. As to the kind of experiment: Anti-inflammatory activity against DSS-induced acute ulcerative colitis C57BL/6 mouse model assessed as recovery of body weight at 20 to 40 mg/kg, po once a day measured after 2 days followed by 7 days after DSS treatment. Particulars: dose 20-40 mg/kg, time 2.0 day. It is filed as functional, organism-based.
Data set [2] in a line: Drug uptake in DSS-induced acute ulcerative colitis C57BL/6 mouse model assessed as drug concentration in colon at 20 mg/kg, po after 0.5 hrs. It is filed as ADME, organism-based. Particulars: read-out: Drug uptake.
The subject of another data set is BMDM. Kind of data set: Cytotoxicity against mouse BMDM cells at 62.5 to 250 nM in presence of NOD. It is filed as toxicity, cell-based. Particulars: 0.25 µM, dose 62.5-250 nM.
A short description of data set [3]: AUC (0 to t) in Balb/C mouse at 10 mg/kg, po measured upto 48 hrs by LC-MS/MS analysis. Particulars: in vivo. It is filed as ADME, organism-based. Further details: time < 48 hrs, dose 10 mg/kg, route po.
Data set [4] deals with Mus musculus. As to the kind of experiment: Anti-inflammatory activity against DSS-induced acute ulcerative colitis C57BL/6 mouse model assessed as reduction in watery stools at 20 to 40 mg/kg, po once a day measured after 2 days followed by 7 days after DSS treatment. It is filed as functional, organism-based. Particulars: dose 20-40 mg/kg, time 2.0 day.
Data set [5] has as its system RAW264.7. As to the kind of experiment: Inhibition of MDP-stimulated TNFalpha production in mouse RAW264.7 cells assessed as TNFalpha mRNA level upto 50 nM incubated for 22 hrs by real-time PCR analysis. It is filed as functional, cell-based.
Data set [6] addresses T1, Receptor-interacting serine/threonine-protein kinase 1 (Homo sapiens, UniProt Q13546).
T1 sequence (Q13546 whole entry): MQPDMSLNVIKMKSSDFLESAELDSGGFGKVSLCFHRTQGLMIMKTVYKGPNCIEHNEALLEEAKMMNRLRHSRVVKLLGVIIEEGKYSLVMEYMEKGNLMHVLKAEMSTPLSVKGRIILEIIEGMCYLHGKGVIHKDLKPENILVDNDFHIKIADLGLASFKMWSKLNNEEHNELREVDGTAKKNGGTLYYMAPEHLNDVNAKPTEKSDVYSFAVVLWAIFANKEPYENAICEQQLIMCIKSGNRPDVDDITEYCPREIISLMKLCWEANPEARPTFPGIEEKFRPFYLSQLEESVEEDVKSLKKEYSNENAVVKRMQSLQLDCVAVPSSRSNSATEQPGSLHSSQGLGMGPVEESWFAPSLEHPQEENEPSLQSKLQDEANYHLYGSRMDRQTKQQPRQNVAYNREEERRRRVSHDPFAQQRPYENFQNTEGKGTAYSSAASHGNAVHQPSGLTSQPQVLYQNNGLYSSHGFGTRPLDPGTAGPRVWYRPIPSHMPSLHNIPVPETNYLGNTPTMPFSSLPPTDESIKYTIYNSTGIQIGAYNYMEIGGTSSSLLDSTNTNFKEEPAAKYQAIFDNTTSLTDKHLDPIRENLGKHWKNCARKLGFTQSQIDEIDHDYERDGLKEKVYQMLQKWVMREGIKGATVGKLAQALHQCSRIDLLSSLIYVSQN
As to the kind of experiment: Inhibition of human RIPK1 by kinase assay.

Data set [7] can be described thus: Cmax in Balb/C mouse at 10 mg/kg, po measured upto 48 hrs by LC-MS/MS analysis. It is filed as ADME, organism-based. Particulars: in vivo. The arrangement: dose 10 mg/kg, time < 48 hrs, route po.
The target in data set [8] is Proto-oncogene tyrosine-protein kinase Src (Homo sapiens, UniProt P12931). Kind of data set: Inhibition of human c-SRC by kinase assay.
Proto-oncogene tyrosine-protein kinase Src, sequence (P12931 2-536 limits assumed): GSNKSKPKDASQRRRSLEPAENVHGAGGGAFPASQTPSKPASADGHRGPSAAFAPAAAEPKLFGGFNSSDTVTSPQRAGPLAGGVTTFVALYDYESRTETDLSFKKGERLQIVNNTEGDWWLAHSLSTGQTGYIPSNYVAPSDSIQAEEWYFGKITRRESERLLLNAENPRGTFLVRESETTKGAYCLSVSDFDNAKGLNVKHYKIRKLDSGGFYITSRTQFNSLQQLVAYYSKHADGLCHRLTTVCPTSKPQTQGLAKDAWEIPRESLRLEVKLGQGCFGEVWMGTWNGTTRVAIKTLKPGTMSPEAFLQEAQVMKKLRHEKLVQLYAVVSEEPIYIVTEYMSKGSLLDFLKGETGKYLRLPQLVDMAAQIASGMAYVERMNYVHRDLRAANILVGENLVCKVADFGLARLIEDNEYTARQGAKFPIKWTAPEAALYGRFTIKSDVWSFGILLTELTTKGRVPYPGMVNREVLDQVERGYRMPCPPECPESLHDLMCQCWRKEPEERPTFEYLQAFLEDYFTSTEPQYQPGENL
A short description of data set [9]: Elimination half life in Balb/C mouse at 10 mg/kg, iv measured upto 48 hrs by LC-MS/MS analysis. It is filed as ADME, organism-based. Particulars: in vivo, read-out: beta t1/2 (converted).
Data set [10] concerns RAW264.7. As to the kind of experiment: Cytotoxicity against mouse RAW264.7 cells at 62.5 to 250 nM in presence of NOD measured after 24 hrs by propidium iodide staining based flow cytometry. Particulars: raw264.7, 24 h, 0.25 µM, dose 62.5-250 nM. It is filed as toxicity, cell-based. A general note: A flow cytometer gives signals particle by particle.
A short description of data set [11]: Cmax in Balb/C mouse at 10 mg/kg, iv measured upto 48 hrs by LC-MS/MS analysis. It is filed as ADME, organism-based. The arrangement: dose 10 mg/kg, time < 48 hrs, route iv. Particulars: in vivo.
Data set [12] is described as follows: Volume of distribution in Balb/C mouse at 10 mg/kg, po measured upto 48 hrs by LC-MS/MS analysis. It is filed as ADME, organism-based. Particulars: in vivo.
For data set [13], the target named is Receptor-interacting serine/threonine-protein kinase 3 (Homo sapiens, UniProt Q9Y572). As to the kind of experiment: Binding affinity to human RIPK3 in human Jurkat cells. It is filed as cell-based.
Receptor-interacting serine/threonine-protein kinase 3, sequence (Q9Y572 whole entry): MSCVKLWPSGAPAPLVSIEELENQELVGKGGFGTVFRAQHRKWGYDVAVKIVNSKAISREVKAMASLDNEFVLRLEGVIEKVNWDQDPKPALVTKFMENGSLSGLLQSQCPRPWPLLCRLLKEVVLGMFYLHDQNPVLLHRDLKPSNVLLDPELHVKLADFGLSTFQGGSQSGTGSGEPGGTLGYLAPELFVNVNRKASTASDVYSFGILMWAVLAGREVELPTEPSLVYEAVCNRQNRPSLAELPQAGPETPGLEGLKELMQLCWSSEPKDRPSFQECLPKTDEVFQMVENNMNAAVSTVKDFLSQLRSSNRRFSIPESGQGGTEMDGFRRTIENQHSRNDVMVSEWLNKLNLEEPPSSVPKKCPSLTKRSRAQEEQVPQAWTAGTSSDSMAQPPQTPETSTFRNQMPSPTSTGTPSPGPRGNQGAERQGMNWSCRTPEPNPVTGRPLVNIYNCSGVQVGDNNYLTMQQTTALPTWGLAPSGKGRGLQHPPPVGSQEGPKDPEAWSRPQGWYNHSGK
Data set [14] addresses T2, Receptor-interacting serine/threonine-protein kinase 4 (Homo sapiens, UniProt P57078).
T2 sequence (P57078 whole entry): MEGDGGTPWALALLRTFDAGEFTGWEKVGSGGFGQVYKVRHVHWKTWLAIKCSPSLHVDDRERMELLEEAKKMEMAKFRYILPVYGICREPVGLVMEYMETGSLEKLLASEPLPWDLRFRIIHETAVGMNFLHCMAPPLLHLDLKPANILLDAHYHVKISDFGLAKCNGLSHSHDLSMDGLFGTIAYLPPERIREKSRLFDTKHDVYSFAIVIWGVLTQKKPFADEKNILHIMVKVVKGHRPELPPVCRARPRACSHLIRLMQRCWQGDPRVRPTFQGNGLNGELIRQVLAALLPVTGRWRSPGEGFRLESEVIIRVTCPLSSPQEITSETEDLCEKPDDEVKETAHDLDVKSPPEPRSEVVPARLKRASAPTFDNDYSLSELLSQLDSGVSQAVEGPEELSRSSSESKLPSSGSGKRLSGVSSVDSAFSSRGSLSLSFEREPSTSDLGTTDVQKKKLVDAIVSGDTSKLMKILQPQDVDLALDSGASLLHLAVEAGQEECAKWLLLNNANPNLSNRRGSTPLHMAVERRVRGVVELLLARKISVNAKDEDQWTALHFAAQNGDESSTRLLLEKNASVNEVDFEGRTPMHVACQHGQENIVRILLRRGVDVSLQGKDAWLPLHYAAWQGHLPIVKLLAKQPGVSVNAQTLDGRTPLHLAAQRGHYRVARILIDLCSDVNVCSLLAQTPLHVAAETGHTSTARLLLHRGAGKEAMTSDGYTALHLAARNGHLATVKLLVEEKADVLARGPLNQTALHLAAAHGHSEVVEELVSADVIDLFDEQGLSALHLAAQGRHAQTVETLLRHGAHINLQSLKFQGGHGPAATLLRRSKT
Kind of data set: Binding affinity to human RIPK4.

A short description of data set [15]: Oral bioavailability in Balb/C mouse at 10 mg/kg measured upto 48 hrs by LC-MS/MS analysis. Particulars: in vivo. It is filed as ADME, organism-based.
Data set [16] is described as follows: Drug uptake in DSS-induced acute ulcerative colitis C57BL/6 mouse model assessed as drug concentration in colon at 20 mg/kg, po after 8 hrs. It is filed as ADME, organism-based. Particulars: read-out: Drug uptake.
Data set [17] deals with Serine/threonine-protein kinase SIK1 (Homo sapiens, UniProt P57059). As to the kind of experiment: Inhibition of human SIK by kinase assay.
Serine/threonine-protein kinase SIK1, sequence (P57059 whole entry): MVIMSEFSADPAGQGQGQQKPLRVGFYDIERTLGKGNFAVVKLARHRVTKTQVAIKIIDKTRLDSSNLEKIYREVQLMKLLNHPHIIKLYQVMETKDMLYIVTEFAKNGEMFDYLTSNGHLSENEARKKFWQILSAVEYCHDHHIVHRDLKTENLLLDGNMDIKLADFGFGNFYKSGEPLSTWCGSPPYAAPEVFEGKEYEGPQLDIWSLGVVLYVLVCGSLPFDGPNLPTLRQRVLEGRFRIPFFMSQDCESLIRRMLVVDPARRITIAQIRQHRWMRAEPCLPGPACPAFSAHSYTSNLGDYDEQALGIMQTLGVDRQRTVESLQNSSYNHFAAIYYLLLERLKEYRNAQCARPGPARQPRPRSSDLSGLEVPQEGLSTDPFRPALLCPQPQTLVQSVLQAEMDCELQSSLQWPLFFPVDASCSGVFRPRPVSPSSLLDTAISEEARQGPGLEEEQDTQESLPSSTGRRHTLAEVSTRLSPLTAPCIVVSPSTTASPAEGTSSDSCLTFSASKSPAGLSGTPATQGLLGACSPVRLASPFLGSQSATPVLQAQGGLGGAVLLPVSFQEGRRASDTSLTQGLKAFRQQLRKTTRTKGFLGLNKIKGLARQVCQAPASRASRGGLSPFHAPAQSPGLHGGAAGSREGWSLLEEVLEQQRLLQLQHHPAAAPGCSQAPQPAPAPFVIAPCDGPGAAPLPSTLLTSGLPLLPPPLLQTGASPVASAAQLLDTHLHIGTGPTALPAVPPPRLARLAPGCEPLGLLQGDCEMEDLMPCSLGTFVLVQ
Data set [18] has as its target Receptor-interacting serine/threonine-protein kinase 2 (Homo sapiens, UniProt O43353). Kind of data set: Binding affinity to human RIPK2 in HEK293 cells. It is filed as cell-based.
Data set [19] in a line: Clearance in Balb/C mouse plasma at 10 mg/kg, po measured upto 48 hrs by LC-MS/MS analysis. It is filed as ADME, organism-based.
Data set [20] concerns Mus musculus. As to the kind of experiment: Anti-inflammatory activity against DSS-induced acute ulcerative colitis C57BL/6 mouse model assessed as recovery of weight loss at 20 mg/kg, po for 6 consecutive days. It is filed as functional, organism-based.
The target of data set [21] is Platelet-derived growth factor receptor beta (Homo sapiens, UniProt P09619). Kind of data set: Inhibition of human PDGFRbeta by kinase assay.
Platelet-derived growth factor receptor beta, sequence (P09619 whole entry): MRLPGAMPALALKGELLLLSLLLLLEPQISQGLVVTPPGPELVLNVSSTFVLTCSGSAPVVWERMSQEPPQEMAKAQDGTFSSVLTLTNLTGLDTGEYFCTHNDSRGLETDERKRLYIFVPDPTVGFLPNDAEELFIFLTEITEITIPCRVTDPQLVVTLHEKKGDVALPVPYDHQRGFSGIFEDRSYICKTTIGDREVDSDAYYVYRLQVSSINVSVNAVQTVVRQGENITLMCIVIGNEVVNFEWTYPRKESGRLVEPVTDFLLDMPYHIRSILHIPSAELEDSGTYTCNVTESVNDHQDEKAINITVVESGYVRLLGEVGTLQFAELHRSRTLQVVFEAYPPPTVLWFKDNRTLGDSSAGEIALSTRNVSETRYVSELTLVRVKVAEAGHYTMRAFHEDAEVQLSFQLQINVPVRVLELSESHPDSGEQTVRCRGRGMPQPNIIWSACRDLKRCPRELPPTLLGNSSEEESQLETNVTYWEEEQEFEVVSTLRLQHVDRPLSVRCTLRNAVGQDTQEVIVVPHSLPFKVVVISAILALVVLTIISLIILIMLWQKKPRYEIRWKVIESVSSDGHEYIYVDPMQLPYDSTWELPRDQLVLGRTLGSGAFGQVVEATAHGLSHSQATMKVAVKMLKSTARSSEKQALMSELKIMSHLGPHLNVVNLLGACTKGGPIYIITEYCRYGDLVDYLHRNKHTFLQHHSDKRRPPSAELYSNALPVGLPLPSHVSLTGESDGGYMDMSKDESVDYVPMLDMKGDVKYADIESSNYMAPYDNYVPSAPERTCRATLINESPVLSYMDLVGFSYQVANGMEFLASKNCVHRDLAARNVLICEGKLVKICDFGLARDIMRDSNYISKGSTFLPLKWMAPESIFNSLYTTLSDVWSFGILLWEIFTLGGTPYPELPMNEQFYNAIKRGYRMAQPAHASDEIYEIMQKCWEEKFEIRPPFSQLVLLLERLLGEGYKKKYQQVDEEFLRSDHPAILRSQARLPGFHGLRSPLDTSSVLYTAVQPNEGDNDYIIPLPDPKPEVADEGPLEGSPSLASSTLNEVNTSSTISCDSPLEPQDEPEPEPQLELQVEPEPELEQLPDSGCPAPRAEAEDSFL

These results are taken from ChEMBL document CHEMBL5131564, “Discovery of Potent and Selective Receptor-Interacting Serine/Threonine Protein Kinase 2 (RIPK2) Inhibitors for the Treatment of Inflammatory Bowel Diseases (IBDs)” (J Med Chem, 2022).

The source made the active and inactive calls. The rule behind the calls is not given here.

Receptor-interacting serine/threonine-protein kinase 2, sequence (O43353 whole entry): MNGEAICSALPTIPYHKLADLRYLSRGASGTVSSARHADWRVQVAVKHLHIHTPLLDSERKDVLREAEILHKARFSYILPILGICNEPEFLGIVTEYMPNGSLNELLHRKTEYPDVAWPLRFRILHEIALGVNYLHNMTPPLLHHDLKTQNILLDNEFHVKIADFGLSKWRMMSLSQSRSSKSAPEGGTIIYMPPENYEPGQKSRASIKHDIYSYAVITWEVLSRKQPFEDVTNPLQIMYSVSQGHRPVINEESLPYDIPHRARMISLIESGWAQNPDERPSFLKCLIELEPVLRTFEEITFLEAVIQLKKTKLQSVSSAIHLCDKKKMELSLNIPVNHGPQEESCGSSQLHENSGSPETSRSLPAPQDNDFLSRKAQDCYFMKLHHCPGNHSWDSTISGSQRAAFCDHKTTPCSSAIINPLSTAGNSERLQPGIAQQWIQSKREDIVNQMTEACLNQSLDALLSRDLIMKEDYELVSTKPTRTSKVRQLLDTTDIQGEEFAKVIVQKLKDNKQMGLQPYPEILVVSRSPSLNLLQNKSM

For the molecule `Cc1ccc(-c2cn([C@H]3CC[C@@H](N)CC3)c3ncnc(N)c23)c(F)c1`, the result in the data set with Mus musculus [1], in the data set on Mus musculus [4] and in the data set on Mus musculus [20] was Active. Further, the concentration at 0.5 h in data set [2] is 3620 ng/g. In addition, the Activity entry in the data set on BMDM and with RAW264.7 [10] was “Non-Toxic” each time. Further, in data set [3], the exposure AUC(0-t) (in general, exposure summed from dosing to a finite time, without extrapolation to infinity) at 48 h turned out to be 151 ng·h/mL. Further, the inhibition result in the data set on RAW264.7 [5] was “Active”. Moreover, the IC50 (as a rule, the concentration at which inhibition is half-maximal) is over 30000 nM in data set [6], 56 nM in data set [8], 89 nM in data set [17] and 862 nM in data set [21]. In addition, the values for the Cmax in data set [7] and in data set [11] were 68.1 ng/mL and 959 ng/mL, respectively. The half-life in data set [9] was 3.9 h. In [12], this molecule had a Vd of 333.24 L/kg. The Kd – broadly, the equilibrium constant for the complex coming apart – was found to be 74.5 nM in data set [13], 2300 nM in data set [14] and 0.28 nM in [18]. For the same molecule, in data set [15], the bioavailability (commonly dose-corrected exposure relative to a reference, in per cent) worked out at 15.1%. The concentration at 8 h in data set [16] came out at 9140 ng/g. The apparent clearance (CL/F) (commonly clearance divided by bioavailability, as obtained after extravascular dosing) in data set [19] was 1130 mL/min/kg.
